Test results published in patent US20110015264A1 (priority 2006, published 2011).
Where two headings read alike, the source gives them in different places.

How the values were obtained:
[1] = biological target: neuraminidase enzyme N9 from H1N9 virus (Influenza A virus, UniProt P03472); test: biochemical; parameters: species or system A/H1N9 (NWS/G70) avian virus; conditions: for IC90: read-out: IC90 against N9 enzyme
influenza virus = tested on: influenza virus; parameters: species or system BALB/c mice; conditions: mouse, in vivo
[2] = tested on: A/Victoria/3/75 (H3N2) influenza virus; parameters: species or system BALB/c mice; conditions: mouse, in vivo
N9 neuraminidase = N9 neuraminidase (Influenza A virus, UniProt P03472); assay type: binding, A/H1N9 (NWS/G70) avian virus
[3] = tested on: A/NWS/33 (H1N1) influenza virus; conditions: mouse, in vivo
influenza = conditions: human, in vivo, po; cited from earlier work
H1N1 neuraminidase = H1N1 neuraminidase (UniProt P03470); conditions: read-out: IC50 against H1N1; Bantia et al. 2001; cited from earlier work
Chain of H1N1 neuraminidase (P03470 whole entry, looked up): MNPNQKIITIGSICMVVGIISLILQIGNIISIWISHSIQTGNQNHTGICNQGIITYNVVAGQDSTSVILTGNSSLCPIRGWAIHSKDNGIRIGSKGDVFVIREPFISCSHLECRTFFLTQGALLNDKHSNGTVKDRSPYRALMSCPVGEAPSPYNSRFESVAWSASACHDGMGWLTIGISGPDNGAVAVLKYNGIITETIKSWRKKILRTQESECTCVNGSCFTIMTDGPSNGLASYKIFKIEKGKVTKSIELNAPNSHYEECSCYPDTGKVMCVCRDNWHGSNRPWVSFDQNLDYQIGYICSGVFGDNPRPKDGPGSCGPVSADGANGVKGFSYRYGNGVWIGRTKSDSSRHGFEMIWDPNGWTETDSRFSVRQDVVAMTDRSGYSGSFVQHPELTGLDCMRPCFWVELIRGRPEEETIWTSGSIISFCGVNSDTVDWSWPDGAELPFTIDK

Chain of neuraminidase enzyme N9 from H1N9 virus (P03472 whole entry, looked up): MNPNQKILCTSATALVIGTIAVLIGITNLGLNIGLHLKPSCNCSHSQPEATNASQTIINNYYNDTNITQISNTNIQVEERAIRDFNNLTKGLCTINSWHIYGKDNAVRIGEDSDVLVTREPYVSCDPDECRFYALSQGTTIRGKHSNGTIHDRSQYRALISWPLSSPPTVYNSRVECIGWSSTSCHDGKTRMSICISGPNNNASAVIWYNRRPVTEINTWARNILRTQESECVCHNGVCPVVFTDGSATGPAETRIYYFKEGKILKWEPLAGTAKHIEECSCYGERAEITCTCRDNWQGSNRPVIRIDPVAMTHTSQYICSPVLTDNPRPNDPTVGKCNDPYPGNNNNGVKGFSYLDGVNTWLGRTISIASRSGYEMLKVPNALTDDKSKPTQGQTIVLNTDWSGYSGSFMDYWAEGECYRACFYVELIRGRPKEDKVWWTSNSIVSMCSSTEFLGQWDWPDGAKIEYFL
Chain of N9 neuraminidase (P03472 whole entry, looked up): as above

CCC(CC)C(NC(C)=O)[C@@H]1[C@H](O)[C@@H](C(=O)O)C[C@H]1NC(=N)N (stereo partly drawn) [peramivir, (1S,2S,3R,4R)-3-(1-Acetamido-2-ethylbutyl)-4-guanidino-2-hydroxycyclopentane-carboxylic acid]
IC50 [1]: 1.3 ± 0.4 nM | IC90 [1]: 5 nM | effectiveness of delayed treatment (influenza virus): highly effective | protection against lethality (influenza virus): complete protection against lethality | weight loss by day 5 (influenza virus): no significant weight loss | weight loss by day 5 (influenza virus; po): no significant weight loss | mean weight loss by day 8 [2]: 4.5 g | mean weight loss by day 8, % of weight [2]: 25% | survived (protection against lethality) [2]: 9/10 | t1/2 of dissociation from N9 neuraminidase (N9 neuraminidase): > 24 h | prevention of weight loss in infected mice [3]: effective in preventing weight loss | survival [3]: 40% | survival rate [3]: 50% | effectiveness in terms of survival ([3]; 1 mg/kg): not effective | mean days to death ([3]; 1 mg/kg): significant increase | weight loss and mortality ([3]; 10 mg/kg): significantly reduced | weight loss by day 5 ([3]; 10 mg/kg): no weight loss | weight loss, % of initial weight ([3]; 10 mg/kg): about 1.7 % of initial weight | signs of drug-related toxicity ([3]; 20 mg/kg): No signs of drug-related toxicity | survival ([3]; po, 1 mg/kg/day): 60% | weight loss by day 5 ([3]; po, 10 mg/kg): 0.22 g | protection against lethality ([3]; po, 10 mg/kg/day): Complete protection against lethality | inhibitory effect on influenza in humans (influenza): undesirably low inhibitory effect | IC50 (H1N1 neuraminidase): 0.11 nM

CCOC(=O)C1=C[C@@H](OC(CC)CC)[C@H](NC(C)=O)[C@@H](N)C1 [oseltamivir, reference compound]
mean weight loss by day 8 ([2]; po): about 5.1 g | mean weight loss by day 8, % of weight ([2]; po): 28% | survived (protection against lethality) ([2]; po): 9/10 | survival rate [3]: 10% | mice survived ([3]; 10 mg/kg): 3 out of 10 | protection against lethality ([3]; 10 mg/kg): 30% | weight loss ([3]; 10 mg/kg): about 4 g | weight loss and mortality ([3]; 10 mg/kg): no efficacy | weight loss, % of initial weight ([3]; 10 mg/kg): 25 % of initial weight | greatest mean weight loss at day 8 ([3]; po, 2 mg/kg/day): 1.34 g | greatest mean weight loss at day 8 ([3]; po, 10 mg/kg/day): 0 g

CC(=O)N[C@H]1[C@H]([C@H](O)[C@H](O)CO)OC(C(=O)O)=C[C@@H]1N=C(N)N [zanamivir, reference compound]
IC90 [1]: 10 nM | t1/2 of dissociation from N9 neuraminidase (N9 neuraminidase): 1.25 h
